# Measured values from patent publication US8309550B2, “Kinase inhibitors and their use as pharmaceutical agents” (Shanghai Genomics, Inc., priority 2011, dated 2012).
# Tests used:
# CDK1/cyclinB = molecular target: T1, CDK1/cyclinB (Homo sapiens, UniProt P06493); assay: Z'-LYTE kinase assay CDK1/cyclinB; type: biochemical; details: read-out: Kinase inhibition, IC50 CDK1B
# T1 construct: purchased Invitrogen PV3292
# Experimental: (§1) Kinase assays. The compounds from the example above were tested for their ability to inhibit kinases. Recombinant human CDK2/cyclinA (PV3267), CDK1/cyclinB (PV3292), CDK5/p35 (PV3000) and Aurora A (PV3612) were purchased from Invitrogen (Carlsbad, Calif., USA). Kinase dosage and Z′-LYTE™ substrate for each kinase assay is as follows: CDK2/cyclinA-8 ng/reaction, Ser/Thr 12 Peptide; CDK1/cyclinB-0.8 ng/reaction, Ser/Thr 12 Peptide, CDK5/p35-0.8 ng/reaction, Ser/Thr 12 Peptide, and Aurora A-16 ng/reaction, Ser/Thr 1 Peptide. All enzymatic assays were performed using Z′-LYTE™ Kinase Assay Kits and were carried out following protocols provided by Invitrogen. To prepare stock solutions, compounds were dissolved at 10 mM in 100% DMSO and stored at 4° C. in amber glass vials. Enzyme reactions were initiated by adding recombinant enzyme and Z′-LYTE™ Ser/Thr peptide substrate and ATP mixture to 384-well plates containing diluted test compounds. Kinase and corresponding peptide substrate were incubated for 1 hr at room temperature in the presence of varying amounts of test compound with reaction buffer (20 μM ATP, […] [pH 7.5], 5 mM MgCl2, 0.5 mM EGTA, 0.005% Brij-35). Development buffer was added and incubated for another one hour at room temperature. Reactions were terminated by addition of stop buffer, and fluorescence emission intensity ratio 445 nm/520 nm (excited at 400 nm) was quantified by VICTOR-3 Multilabel Reader (Perkin-Elmer, Waltham, Mass., USA). Phosphorylation was calculated from the emission ratio. IC50 was determined using Sigmoid curve-fitting software Origin 6.0 (MicroCal, LLC, Northampton, Mass., USA).
# CDK2/cyclinA = molecular target: T2, CDK2/cyclinA (Homo sapiens, UniProt P24941); assay: Z'-LYTE kinase assay CDK2/cyclinA; type: biochemical; details: read-out: Kinase inhibition, IC50 CDK2A
# T2 construct: purchased Invitrogen PV3267
# Experimental: as §1
# CDK5/p35 = molecular target: T3, CDK5/p35 (Homo sapiens, UniProt Q00535); assay: Z'-LYTE kinase assay CDK5/p35; type: biochemical; details: read-out: Kinase inhibition, IC50 CDK5/p35
# T3 construct: purchased Invitrogen PV3000
# T3 sequence (Q00535 whole entry): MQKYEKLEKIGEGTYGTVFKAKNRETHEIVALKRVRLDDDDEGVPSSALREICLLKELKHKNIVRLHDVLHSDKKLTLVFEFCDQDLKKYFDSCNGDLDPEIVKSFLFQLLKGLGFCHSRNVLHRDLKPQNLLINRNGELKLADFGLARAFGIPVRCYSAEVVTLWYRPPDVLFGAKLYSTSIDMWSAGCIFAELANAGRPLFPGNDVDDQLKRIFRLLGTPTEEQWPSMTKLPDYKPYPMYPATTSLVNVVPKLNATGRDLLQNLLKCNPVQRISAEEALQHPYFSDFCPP
# T3 sequence (Q15078 whole entry partner): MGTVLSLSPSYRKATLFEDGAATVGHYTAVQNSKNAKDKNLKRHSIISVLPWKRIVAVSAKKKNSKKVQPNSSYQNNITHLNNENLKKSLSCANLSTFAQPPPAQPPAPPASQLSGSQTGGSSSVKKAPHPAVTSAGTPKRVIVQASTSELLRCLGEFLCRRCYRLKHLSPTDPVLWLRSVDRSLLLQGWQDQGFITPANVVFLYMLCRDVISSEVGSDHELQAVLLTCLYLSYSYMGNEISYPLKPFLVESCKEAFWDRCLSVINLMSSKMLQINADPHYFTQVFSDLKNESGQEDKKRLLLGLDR
# Experimental: as §1
# CDK9T1 = CDK9T1 (Homo sapiens, UniProt P50750); assay: Kinase assay CDK9T1 (Table I); type: biochemical; details: read-out: Kinase inhibition, IC50 CDK9T1
# Chain of CDK9T1 (P50750 whole entry): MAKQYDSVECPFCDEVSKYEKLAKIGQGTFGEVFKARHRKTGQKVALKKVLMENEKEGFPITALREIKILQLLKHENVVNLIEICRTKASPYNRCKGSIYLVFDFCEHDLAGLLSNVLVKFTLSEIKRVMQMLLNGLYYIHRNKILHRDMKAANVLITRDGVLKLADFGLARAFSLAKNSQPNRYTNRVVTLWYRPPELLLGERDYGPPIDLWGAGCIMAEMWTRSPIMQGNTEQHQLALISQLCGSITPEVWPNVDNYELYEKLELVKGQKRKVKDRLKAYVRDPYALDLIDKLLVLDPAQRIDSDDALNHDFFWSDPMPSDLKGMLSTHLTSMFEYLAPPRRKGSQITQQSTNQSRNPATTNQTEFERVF
# Chain of CDK9T1 (O60563 whole entry partner): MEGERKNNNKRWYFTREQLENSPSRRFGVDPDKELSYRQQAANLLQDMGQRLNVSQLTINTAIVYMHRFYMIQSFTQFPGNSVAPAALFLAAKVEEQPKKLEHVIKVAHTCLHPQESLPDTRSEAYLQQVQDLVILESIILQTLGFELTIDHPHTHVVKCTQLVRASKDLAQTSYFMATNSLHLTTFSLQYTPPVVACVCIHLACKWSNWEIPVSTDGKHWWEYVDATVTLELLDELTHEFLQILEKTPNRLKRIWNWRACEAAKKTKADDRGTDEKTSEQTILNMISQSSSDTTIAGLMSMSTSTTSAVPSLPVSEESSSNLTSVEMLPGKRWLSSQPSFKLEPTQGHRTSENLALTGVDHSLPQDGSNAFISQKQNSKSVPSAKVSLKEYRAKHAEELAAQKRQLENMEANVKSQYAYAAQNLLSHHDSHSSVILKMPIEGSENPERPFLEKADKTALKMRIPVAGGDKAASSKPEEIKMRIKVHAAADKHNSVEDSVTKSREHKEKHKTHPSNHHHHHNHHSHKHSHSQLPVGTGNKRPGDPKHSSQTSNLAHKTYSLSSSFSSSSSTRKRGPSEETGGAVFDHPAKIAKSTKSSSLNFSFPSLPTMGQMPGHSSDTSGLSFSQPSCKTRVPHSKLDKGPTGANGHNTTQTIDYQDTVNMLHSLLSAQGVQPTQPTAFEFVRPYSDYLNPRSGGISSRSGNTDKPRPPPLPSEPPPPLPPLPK
# Experimental: [The source words this procedure for another target and reports this target under the same test.] as §1
# Aurora A = molecular target: T4, Aurora A (Homo sapiens, UniProt O14965); assay: Z'-LYTE kinase assay Aurora A; type: biochemical; details: read-out: Kinase inhibition, IC50 Aurora A
# T4 construct: purchased Invitrogen PV3612
# T4 sequence (O14965 1-403): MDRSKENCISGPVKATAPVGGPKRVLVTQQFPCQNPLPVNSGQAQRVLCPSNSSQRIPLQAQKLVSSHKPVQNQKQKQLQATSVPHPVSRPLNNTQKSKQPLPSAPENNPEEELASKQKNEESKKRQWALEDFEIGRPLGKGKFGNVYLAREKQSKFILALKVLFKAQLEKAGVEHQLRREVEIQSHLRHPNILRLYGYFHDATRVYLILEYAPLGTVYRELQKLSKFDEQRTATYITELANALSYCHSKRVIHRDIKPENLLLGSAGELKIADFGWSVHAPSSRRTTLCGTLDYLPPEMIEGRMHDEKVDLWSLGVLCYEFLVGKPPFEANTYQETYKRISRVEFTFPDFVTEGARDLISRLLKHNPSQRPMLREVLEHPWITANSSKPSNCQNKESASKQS
# Experimental: as §1
# Aurora B = Aurora B (Homo sapiens, UniProt Q96GD4); assay: Kinase assay Aurora B (Table I); type: biochemical; details: read-out: Kinase inhibition, IC50 Aurora B
# Chain of Aurora B (Q96GD4 whole entry): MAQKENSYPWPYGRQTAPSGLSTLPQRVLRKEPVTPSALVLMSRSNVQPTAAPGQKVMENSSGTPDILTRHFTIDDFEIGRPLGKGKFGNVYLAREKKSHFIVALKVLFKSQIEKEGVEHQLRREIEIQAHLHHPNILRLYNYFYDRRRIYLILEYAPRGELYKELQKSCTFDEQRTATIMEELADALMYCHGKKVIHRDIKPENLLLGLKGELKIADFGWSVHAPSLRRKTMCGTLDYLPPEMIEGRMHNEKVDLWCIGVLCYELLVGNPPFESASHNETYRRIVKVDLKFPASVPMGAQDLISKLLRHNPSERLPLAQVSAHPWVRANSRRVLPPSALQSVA
# Experimental: [The source words this procedure for another target and reports this target under the same test.] as §1
# HeLa cells = assay: 72 h MTT cytotoxicity assay HeLa; type: cell-based; details: Homo sapiens
# Excerpt: (§2) MIT cytotoxicity assay. The compounds of the invention were subjected to a standard cellular proliferation assay using human cell lines. HeLa cells (Human cervix adenocarcinoma cell line, ATCC NO, CCL-2); A549 cells (Human lung carcinoma cells line, ATCC NO, CCL-185); U2OS cells (Human osteosarcoma cell line, ATCC NO, HTB-96); Eca-109 cells (Human esophageal carcinoma cell line); HepG2 (Human hepatocellular liver carcinoma cell line, ATCC NO, HB-8065); K562 cells (Human chronic myelogenous leukemia cell line, ATCC NO, CCL-243); SK-MEL-28 (Human malignant melanoma cell line, ATCC NO, HTB-72); Molt-4 (Human acute lymphoblastic leukemia cell line, ATCC NO, CRL-1582); H460 (Human large cell lung cancer cell line, ATCC NO, HTB-177); MDA-MB-231 (Human breast adenocarcinoma cell line, ATCC NO, HTB-26); MCF7 (Human breast adenocarcinoma cell line, ATCC NO, HTB-22); ACHN (Human renal cell adenocarcinoma cell line, ATCC NO, CRL-1611); PC-3M (Human prostate adenocarcinoma cell line, ATCC NO CRL-1435); HL60 (Human acute promyelocytic leukemia cell line, ATCC NO, CCL-240); THP-1 (Human acute monocytic leukemia, ATCC NO, TIB-202); Jurkat (Human acute T cell leukemia cell line, ATCC NO, CRL-2063); HCT-116 (Human colorectal carcinoma cell line, ATCC NO, CCL-247); HT-29 (Human colorectal adenocarcinoma cell line, ATCC NO, HTB-38™); WI-38 (Human normal lung cell line, ATCC NO, CCL-75); MRC-5 (Human normal lung cell line, ATCC NO, CCL-171).
# (§3) HepG2, MDA-MB-231, WI-38 and MRC-5 cells were obtained from Shanghai Institute of Cell Biology, Chinese Academy of Sciences (Shanghai 200031, China). A549, HeLa, K562, MCF7, ACHN, H460, U2OS, Eca-109, MCF7, HL60, THP-1, Jurkat, HCT-116, HT-29, PC-3M, SK-MEL-28, Molt-4, H460 and […] cells were purchased from ATCC (American Type Culture Collection, USA).
# (§4) Standard 72 h MTT (thiazolye blue; 3-[4,5-dimethylthiazol-2-yl]-2,5-diphenyltetrazolium bromide) assays were performed. Briefly, the cell lines used in this study were recovered and cultured according to the conditions recommended. 4000 cells per well were seeded into 96-well plates according to doubling time and incubated overnight at 37° C. Compounds were prepared in DMSO and a ½ dilution series in 100 μl cell culture media, added to cells (in duplicates) with the final DMSO concentration of 0.025%, and incubated for 72 hrs at 37° C. MTT solution (5 mg/ml) was added at 10 μl per well and incubated in the dark at 37° C. for 4 hr. Culture medium and MTT solution was removed. MTT dye was solubilised with 100 μl per well of DMSO with agitation. Absorbance was read at 562 nm and data analyzed using Sigmoid curve-fitting software Origin 6.0 (MicroCal, LLC, USA) to determine IC50 value.
# A549 cells = assay: 72 h MTT cytotoxicity assay A549; type: cell-based; details: Homo sapiens; A549, 72 hrs
# Excerpt: as §2, §3, §4
# U2OS cells = assay: 72 h MTT cytotoxicity assay U2OS; type: cell-based; details: Homo sapiens
# Excerpt: as §2, §3, §4
# Eca-109 cells = assay: 72 h MTT cytotoxicity assay Eca-109; type: cell-based; details: Homo sapiens; Eca-109, 72 hrs
# Excerpt: as §2, §3, §4
# HepG2 = assay: 72 h MTT cytotoxicity assay HepG2; type: cell-based; details: Homo sapiens; HepG2, 72 hrs
# Excerpt: as §2, §3, §4
# K562 cells = assay: 72 h MTT cytotoxicity assay K562; type: cell-based; details: Homo sapiens; K562, 72 hrs
# Excerpt: as §2, §3, §4
# MCF7 = assay: 72 h MTT cytotoxicity assay MCF7; type: cell-based; details: Homo sapiens; MCF7, 72 hrs
# Excerpt: as §2, §3, §4
# SK-MEL-28-luc = assay: 72 h MTT cytotoxicity assay SK-MEL-28-luc; type: cell-based; details: Homo sapiens
# Excerpt: as §2, §3, §4
# Molt-4-luc = assay: 72 h MTT cytotoxicity assay Molt-4-luc; type: cell-based; details: Homo sapiens
# Excerpt: as §2, §3, §4
# H460-luc = assay: 72 h MTT cytotoxicity assay H460-luc; type: cell-based; details: Homo sapiens, NCI-H460-Luc; H460-luc, 72 hrs; read-out: Cytotoxicity, MTT 72 hrs, IC50 H460-luc
# Excerpt: as §2, §3, §4
# MDA-MB-231-luc = assay: 72 h MTT cell viability MDA-MB-231-luc; type: cell-based; details: Homo sapiens
# Excerpt: as §2, §3, §4
# ACHN-luc = assay: 72 h MTT cell viability ACHN-luc; type: cell-based; details: Homo sapiens
# Excerpt: as §2, §3, §4
# WI-38 = assay: 72 h MTT cell viability WI-38 (normal lung); type: cell-based; details: Homo sapiens; WI-38, normal lung cell line
# Excerpt: as §2, §3, §4
# T1 sequence (P06493 whole entry): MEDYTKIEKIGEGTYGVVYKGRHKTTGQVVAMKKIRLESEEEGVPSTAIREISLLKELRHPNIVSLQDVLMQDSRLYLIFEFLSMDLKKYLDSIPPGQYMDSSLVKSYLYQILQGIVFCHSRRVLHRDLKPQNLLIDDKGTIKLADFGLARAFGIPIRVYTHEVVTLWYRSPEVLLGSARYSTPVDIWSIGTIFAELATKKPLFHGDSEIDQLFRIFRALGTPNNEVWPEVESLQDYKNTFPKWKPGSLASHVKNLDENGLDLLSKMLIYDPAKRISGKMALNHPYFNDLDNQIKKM
# T1 sequence (P14635 whole entry partner): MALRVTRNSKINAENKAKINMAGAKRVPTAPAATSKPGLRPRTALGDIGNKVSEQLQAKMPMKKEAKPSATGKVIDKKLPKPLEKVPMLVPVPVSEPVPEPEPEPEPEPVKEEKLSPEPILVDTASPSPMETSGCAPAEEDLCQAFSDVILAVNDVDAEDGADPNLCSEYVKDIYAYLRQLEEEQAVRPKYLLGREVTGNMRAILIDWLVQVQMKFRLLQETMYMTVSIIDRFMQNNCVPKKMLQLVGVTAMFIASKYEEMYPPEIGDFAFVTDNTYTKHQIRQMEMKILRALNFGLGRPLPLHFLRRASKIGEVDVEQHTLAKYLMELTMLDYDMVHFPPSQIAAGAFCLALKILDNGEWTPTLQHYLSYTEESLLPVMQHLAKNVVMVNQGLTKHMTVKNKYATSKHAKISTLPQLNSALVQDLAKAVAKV
IC50 (CDK1/cyclinB) [µM],IC50 (CDK2/cyclinA) [µM],IC50 (CDK5/p35) [µM],IC50 (CDK9T1) [µM],IC50 (Aurora A) [µM],IC50 (Aurora B) [µM],IC50 (MDA-MB-231-luc) [µM],IC50 (ACHN-luc) [µM],Structure (SMILES),IC50 (HeLa cells) [µM],IC50 (A549 cells) [µM],IC50 (U2OS cells) [µM],IC50 (Eca-109 cells) [µM],IC50 (HepG2) [µM],IC50 (K562 cells) [µM],IC50 (MCF7) [µM],IC50 (SK-MEL-28-luc) [µM],IC50 (Molt-4-luc) [µM],IC50 (H460-luc) [µM],IC50 (WI-38) [µM]
1.34,0.272,3.18,0.11,0.29,1.44,8.51,3.46,"CCn1cc(-c2ccnc(Nc3cccc(C(N)=O)c3)n2)c2cccnc21 [Compound 19, 3-(4-(1-Ethyl-1H-pyrrolo[2,3-b]pyridin-3-yl)pyrimidin-2-ylamino)benzamide]",4.33,3.43,9.54,> 10,1.41,15.4,3.96,> 10,6.66,3.63,> 10
2.5,0.543,2.61,,0.28,0.34,6.33,9.82,"Cn1cc(-c2ccnc(Nc3cccc(O)c3)n2)c2ccccc21 [Compound 1, 3-(4-(1-Methyl-1H-indol-3-yl)pyrimidin-2-ylamino)phenol]",4.7,6.03,5.99,14.2,4.55,4.78,10.1,6.47,6.4,6.19,> 10
7.64,0.463,> 10,0.16,1.16,> 10,2.63,2.45,"CCCn1cc(-c2ccnc(Nc3cccc([N+](=O)[O-])c3)n2)c2cccnc21 [Compound 17, N-(3-Nitrophenyl)-4-(1-propyl-1H-pyrrolo[2,3-b]pyridin-3-yl)pyrimidin-2-amine]",4.22,2.19,4.91,6.06,1.19,2.31,4.93,5.48,6.29,2.49,> 10
0.09,0.0043,0.1,0.079,0.8,0.93,,,"CCn1cc(-c2ccnc(Nc3cccc(O)c3)n2)c2ccnc(Cl)c21 [Compound 72, 3-(4-(7-Chloro-1-ethyl-1H-pyrrolo[2,3-c]pyridin-3-yl)pyrimidin-2-ylamino)phenol]",,,,,,,,,,,
1.34,0.002,0.375,0.029,5.84,1.01,,,"CCn1cc(-c2ccnc(Nc3cccc(O)c3)n2)c2ccccc21 [Compound 7, 3-[4-(1-Ethyl-1H-indol-3-yl)-pyrimidin-2-ylamino]-phenol]",,,,,,,,,,,
4.11,0.172,5.54,> 10,0.27,0.75,,,"CCn1cc(-c2ccnc(Nc3ccc(O)cc3)n2)c2cccnc21 [Compound 12, 4-(4-(1-Ethyl-1H-pyrrolo[2,3-b]pyridin-3-yl)pyrimidin-2-ylamino)phenol]",,,,,,,,,,,
0.03,0.01,0.1,0.052,4.9,5.8,,,"CCCn1cc(-c2ccnc(Nc3ccc(S(N)(=O)=O)cc3)n2)c2cccnc21 [Compound 23, 4-(4-(1-Propyl-1H-pyrrolo[2,3-b]pyridin-3-yl)pyrimidin-2-ylamino)benzenesulfonamide]",,,,,,,,,,,
0.742,0.305,0.95,0.043,0.15,0.2,6.16,23.4,"Cn1cc(-c2ccnc(Nc3ccc(O)cc3)n2)c2ccccc21 [Compound 2, 4-(4-(1-Methyl-1H-indol-3-yl)pyrimidin-2-ylamino)phenol]",4.93,8.29,7.33,14.5,5.97,6.17,9.56,6.37,6.3,6.39,> 10
